{
  "source": "patent US20240409501A1",
  "about": "“CYRSTALLINE FORMS OF RIP1 INHIBITOR” (SIRONAX LTD., priority 2021, published 2024)",
  "type_in_all_cases": "physicochemical",
  "key": {"[1]": {"assay": "Equilibrium solubility of Type A in H2O at RT", "procedure": "Equilibrium solubility of Type A in H2O was measured at RT. Specifically, 10.0 mg of a Type A sample (817506-48-A2) was suspended into 1 mL of H2O (˜1000 rpm) at RT. After 24 hrs, the suspension was centrifuged (10000 rpm, 5 min, RT) followed by filtration (0.45 μm PTFE membrane). The supernatant (first few drops were discarded) was analyzed for HPLC solubility and pH, and the residual solids were used for XRPD analysis.\n(§1) An Agilent 1290 UPLC with DAD detector and Agilent 1260 HPLC with VWD detector were use and detailed chromatographic conditions for purity and solubility analysis are listed in Table 42 and Table 43."}, "[2]": {"assay": "Solid state stability (XRPD, DSC, HPLC after storage)", "conditions": "for % of Initial: HPLC purity", "procedure": "To evaluate the solid state stability, a Type A sample (817506-48-A2) was stored under 80° C. for one day, and 25° C./60% RH and 40° C./75% RH for one week each. […] DSC characterization results were shown from FIG. 35 to FIG. 37. Only one endotherm at about 95° C. was observed, indicating the solids under all the conditions were pure Type A.\nas §1"}, "[3]": {"assay": "Photo stability under white light and ultraviolet (ICH guideline)", "procedure": "Photo stability of Type A (817506-48-A2) was assessed under both white light (1,200,000 Lux-hrs) and ultraviolet (200 W·hrs/m^2) conditions according to the ICH guideline. […] Only an endotherm at about 95° C. was observed on the DSC curves (FIGS. 42-43)."}, "[4]": {"assay": "Hygroscopicity, DVS isotherm at 25° C. between 0 and 95% RH", "procedure": "To investigate the solid from stability as a function of humidity, a DVS isotherm plot of Type A (817506-48-A2) was collected at 25° C. between 0 and 95% RH. […] (onset) after the DVS test.\nDVS was measured Via an SMS (Surface Measurement Systems) DVS Intrinsic. The relative humidity at 25° C. was calibrated against deliquescence point of LiCl. Mg(NO3)2 and KCl."}, "[5]": {"assay": "Approximate solubility in 20 solvent systems at RT", "procedure": "Approximate solubility of N-(3,5-difluorobenzyl)-N-hydroxy-2,2-dimethylbutanamide (817506-01-A) was measured in 20 solvent systems at RT. Approximately 2 mg of the sample was added into a 3-mL glass vial. Solvents as shown in Table 36 were then added stepwise (50/50/200/700/1000 μL) into the vials until the solids were dissolved visually or a total volume of 2 mL was reached. Solubility results summarized in Table 36 were used to guide the solvent selection in preparing the solid forms as disclosed herein."}, "[6]": {"assay": "Form conversion of Type C on vacuum drying (XRPD)", "conditions": "vacuum dried at 50° C.", "from_the_text": "Type C of N-(3,5-difluorobenzyl)-N-hydroxy-2,2-dimethylbutanamide (817506-10-A10) was obtained via liquid vapor diffusion of a DMSO solution of a starting material (817506-01-A) in H2O atmosphere."}, "[7]": {"conditions": "White light (1,200,000 Lux-hrs)"}},
  "note": "Entries after “also recorded” stand apart in the source; their conditions may differ.",
  "data": [
    {"smiles": "CCC(C)(C)C(=O)N(O)Cc1cc(F)cc(F)c1", "note": "[Type A, N-(3,5-difluorobenzyl)-N-hydroxy-2,2-dimethylbutanamide]", "values": [
      {"measurement": "Form change", "setting": "[1]; after suspending in H2O at RT for about 24 hrs, XRPD of residual solids", "result": "no crystalline type change and no form change and No"},
      {"measurement": "pH", "setting": "[1]; supernatant after suspension in H2O at RT for 24 hrs", "result": 8.7},
      {"measurement": "solubility at 24 h", "setting": "[1]; water, thermodynamic from solid, equilibrium solubility in H2O, RT, 24 hrs, HPLC", "result": "~0.15", "unit": "mg/mL"},
      {"measurement": "Final Form", "setting": "[2]; 25° C./60% RH/1 w", "result": "Type A"},
      {"measurement": "% of Initial", "setting": "[2]; 25° C./60% RH/1 w", "result": 100.0, "unit": "%"},
      {"measurement": "Final Form", "setting": "[2]; 40° C./75% RH/1 w", "result": "Type A"},
      {"measurement": "% of Initial", "setting": "[2]; 40° C./75% RH/1 w", "result": 100.0, "unit": "%"},
      {"measurement": "Final Form", "setting": "[2]; 80° C./1 d", "result": "Type A"},
      {"measurement": "% of Initial", "setting": "[2]; 80° C./1 d", "result": 100.0, "unit": "%"},
      {"measurement": "form change or decrease in purity", "setting": "[2]; all conditions: 80° C. one day, 25° C./60% RH and 40° C./75% RH one week each", "result": "No crystalline form change or HPLC purity decrease; also recorded: No form change or decrease in purity"},
      {"measurement": "Form", "setting": "[3]; UV (200 W·hrs/m^2)", "result": "Type A"},
      {"measurement": "Purity (area %)", "setting": "[3]; UV (200 W·hrs/m^2)", "result": 100.0, "unit": "area %"},
      {"measurement": "Form", "setting": "[3]; [7]", "result": "Type A"},
      {"measurement": "Purity (area %)", "setting": "[3]; [7]", "result": 100.0, "unit": "area %"},
      {"measurement": "form change after photo stability evaluation", "setting": "[3]; both white light and ultraviolet, XRPD and DSC", "result": "No crystalline form change or HPLC purity decrease; also recorded: no form change"},
      {"measurement": "purity decrease after photo stability evaluation", "setting": "[3]; white light and ultraviolet, HPLC", "result": "no purity decrease"},
      {"measurement": "water uptake (DVS plot)", "setting": "[4]; 25° C./80VRH", "result": 0.1, "unit": "%"},
      {"measurement": "water uptake (DVS)", "setting": "[4]; 80% RH/25° C.", "result": "about 0.10%"},
      {"measurement": "hygroscopicity", "setting": "[4]; DVS at 25° C.", "result": "non-hygroscopic"},
      {"measurement": "form change after the DVS test", "setting": "[4]; XRPD before and after DVS", "result": "no form change"}
    ]},
    {"smiles": "CCC(C)(C)C(=O)N(O)Cc1cc(F)cc(F)c1", "note": "[N-(3,5-difluorobenzyl)-N-hydroxy-2,2-dimethylbutanamide]", "values": [
      {"measurement": "solubility", "setting": "[5]; organic solvent or mixture, thermodynamic from solid, 1,4-Dioxane, RT", "result": "> 46", "unit": "mg/mL"},
      {"measurement": "solubility", "setting": "[5]; organic solvent or mixture, thermodynamic from solid, 2-MeTHF, RT", "result": "2.2 to 7.3", "unit": "mg/mL"},
      {"measurement": "solubility", "setting": "[5]; organic solvent or mixture, thermodynamic from solid, ACN, RT", "result": "> 50", "unit": "mg/mL"},
      {"measurement": "solubility", "setting": "[5]; organic solvent or mixture, thermodynamic from solid, Acetone, RT", "result": "> 46", "unit": "mg/mL"},
      {"measurement": "solubility", "setting": "[5]; organic solvent or mixture, thermodynamic from solid, CHCl3, RT", "result": "> 50", "unit": "mg/mL"},
      {"measurement": "solubility", "setting": "[5]; organic solvent or mixture, thermodynamic from solid, DCM, RT", "result": "> 50", "unit": "mg/mL"},
      {"measurement": "solubility", "setting": "[5]; organic solvent or mixture, thermodynamic from solid, DMAc, RT", "result": "21 to 42", "unit": "mg/mL"},
      {"measurement": "solubility", "setting": "[5]; organic solvent or mixture, thermodynamic from solid, DMSO, RT", "result": "> 42", "unit": "mg/mL"},
      {"measurement": "solubility", "setting": "[5]; organic solvent or mixture, thermodynamic from solid, EtOAc, RT", "result": "> 44", "unit": "mg/mL"},
      {"measurement": "solubility", "setting": "[5]; organic solvent or mixture, thermodynamic from solid, EtOH, RT", "result": "> 40", "unit": "mg/mL"},
      {"measurement": "solubility", "setting": "[5]; organic solvent or mixture, thermodynamic from solid, IPA, RT", "result": "> 42", "unit": "mg/mL"},
      {"measurement": "solubility", "setting": "[5]; organic solvent or mixture, thermodynamic from solid, IPAC, RT", "result": "> 50", "unit": "mg/mL"},
      {"measurement": "solubility", "setting": "[5]; organic solvent or mixture, thermodynamic from solid, MIBK, RT", "result": "> 50", "unit": "mg/mL"},
      {"measurement": "solubility", "setting": "[5]; organic solvent or mixture, thermodynamic from solid, MTBE, RT", "result": "2.3 to 7.7", "unit": "mg/mL"},
      {"measurement": "solubility", "setting": "[5]; organic solvent or mixture, thermodynamic from solid, MeOH, RT", "result": "> 46", "unit": "mg/mL"},
      {"measurement": "solubility", "setting": "[5]; organic solvent or mixture, thermodynamic from solid, NMP, RT", "result": "2.4 to 48", "unit": "mg/mL"},
      {"measurement": "solubility", "setting": "[5]; organic solvent or mixture, thermodynamic from solid, THF, RT", "result": "25 to 50", "unit": "mg/mL"},
      {"measurement": "solubility", "setting": "[5]; organic solvent or mixture, thermodynamic from solid, Toluene, RT", "result": "20 to 40", "unit": "mg/mL"},
      {"measurement": "solubility", "setting": "[5]; organic solvent or mixture, thermodynamic from solid, n-Heptane, RT", "result": "< 1", "unit": "mg/mL"},
      {"measurement": "solubility", "setting": "[5]; water, thermodynamic from solid, H2O, RT", "result": "< 1.3", "unit": "mg/mL"}
    ]},
    {"smiles": "CCC(C)(C)C(=O)N(O)Cc1cc(F)cc(F)c1", "note": "[Type C, N-(3,5-difluorobenzyl)-N-hydroxy-2,2-dimethylbutanamide]", "values": [
      {"measurement": "form after drying", "setting": "[6]", "result": "converted to Type A"}
    ]}
  ]
}
